Test results taken from patent EP1529533A1, “Use of GH secretagogues in hypoxic-ischemic brain injury” (Sahltech I Göteborg AB, priority 2003, dated 2005).
Where a SMILES comes first, the peptide text is derived from it. [ ]: non-standard residue; d: D form. dTrp(2-Me) = Cc1[nH]c2ccccc2c1C[C@@H](N)C(=O)O

Experiment: Body temperature, mortality and body weight in the hypoxia-ischemia study
Format: in vivo, rats
Settings: between the two groups (hexarelin vs. vehicle); data not shown
Excerpt: In a neonatal model that has previously been described (Rice J. E., V. R. C. Brierley, Ann. Neurol. 9 (1981), 1126-35; Hagberg H. et al., Acta Paedeatr. Suppl 442 (1997), 85-88). Seven-day-old out bred Wistar Fue rats were anesthetised with enflurane (3,5% for induction and 1,5% for maintenance) in a mixture of nitrous oxide and oxygen on a snout mask. The left common carotid artery was cut between two prolene sutures (9-0). After anesthesia and surgery the animals were returned to there dams and allowed to recover for 60 minutes. They were thereafter exposed to 60 minutes of hypoxia in a humidified chamber at 36°C with 7.7±0.01% oxygen in nitrogen. The pups were returned to and kept with their dams until they were killed at different time points after the insult Animals were either perfused intracardially with saline and 5% buffered formaldehyde (Histofix; Histolab, Göteborg, Sweden) for preparation of paraffin sections or fresh tissue were immediately frozen in isopenthane on dry ice for preparation of protein homogenates. The animal ethics committee in Gothenburg approved the animal studies.
Animals received daily intracerebral injections of 5 µl solution containing either 5µg hexarelin or vehicle (NaCl 0.9 mg/ml). Injections were headed for the left ventricular at 1.5 mm lateral to the Sagittal suture, 5.7 mm rostral to lambda and 2.8 mm deep to the skull surface with a special made needle of 27 gauge. Injection velocity of 1.5 µl/min with a Hamilton syringe connected to a MCA pump.
Brain injury was evaluated and observer blinded between the study groups using a neuropathological scoring system where injury in cortex was graded from 0-4 with 0 being no observable injury and 4 being confluent infarction encompassing most of the hemisphere. The damage in the hippocampus, thalamus and striatum was assessed regarding both hypothrophy (shrinkage of cells) 0-3 and observable cell injury/infarction 0-3, resulting in a scoring for each region 0-6. The total score 0-22 was the sum score for all the four regions.

Cc1[nH]c2ccccc2c1C[C@@H](NC(=O)[C@@H](N)Cc1cnc[nH]1)C(=O)N[C@@H](C)C(=O)N[C@@H](Cc1c[nH]c2ccccc12)C(=O)N[C@H](Cc1ccccc1)C(=O)N[C@@H](CCCCN)C(N)=O [Hexarelin] (H-H[dTrp(2-Me)]AW[dF]K-NH2)
no differences: body temperature | body weight | mortality
